Measured values: publication PMC9239272 (mBio, 2022)

Experiments:
SARS2 M^pro P168S [1] = assay type: cell-based, SARS-CoV-2
SARS2 M^pro Q189E = assay type: cell-based, SARS-CoV-2
SARS2 M^pro M49D = assay type: cell-based, SARS-CoV-2
SARS2 M^pro M49I = assay type: cell-based, SARS-CoV-2
P168G SARS2 M^pro = P168G SARS2 M^pro (Severe acute respiratory syndrome coronavirus 2, UniProt P0DTD1, P3431G); assay type: biochemical, SARS-CoV-2
P168S SARS2 M^pro = P168S SARS2 M^pro (Severe acute respiratory syndrome coronavirus 2, UniProt P0DTD1, P3431S); assay type: biochemical, SARS-CoV-2
SARS2 M^pro Q189N = assay type: cell-based, SARS-CoV-2
SARS2 M^pro P168S [2] = assay type: cell-based, SARS-CoV-2; remark: listed apart in the source
SARS2 M^pro P168G [3] = assay type: cell-based, SARS-CoV-2
SARS2 M^pro P168G [4] = assay type: cell-based, SARS-CoV-2; remark: listed apart in the source
[5] = test system: SARS2 H132 (Omicron) M^pro; assay type: cell-based, SARS-CoV-2

Row | Compound | average increase in luciferase signal over wild type (SARS2 M^pro P168S [1]) | effect of amino acid change on inhibition (SARS2 M^pro P168S [1]) | effect of amino acid change on inhibition (SARS2 M^pro Q189E) | effect of amino acid change on inhibition (SARS2 M^pro M49D) | effect of amino acid change on inhibition (SARS2 M^pro M49I) | lower IC50 than wild-type Mpro (P168G SARS2 M^pro) | lower IC50 than wild-type Mpro (P168S SARS2 M^pro) | effect of amino acid change on inhibition (SARS2 M^pro Q189N) | eGFP signal localization compared with wild-type construct (SARS2 M^pro P168S [2]) | average increase in luciferase signal over wild type (SARS2 M^pro P168G [3]) | effect of amino acid change on inhibition (SARS2 M^pro P168G [3]) | eGFP signal localization compared with wild-type construct (SARS2 M^pro P168G [4]) | sensitivity of Omicron (P132H) Mpro [5] | decrease of inhibitor efficacy versus wild type (SARS2 M^pro M49D) | decrease of inhibitor efficacy versus wild type (SARS2 M^pro Q189N)
1 | CC(C)(C)NC(=O)N[C@H](C(=O)N1C[C@H]2[C@@H]([C@H]1C(=O)NC(CC1CCC1)C(=O)C(N)=O)C2(C)C)C(C)(C)C (stereo partly shown) [boceprevir] | 4 fold | hypersensitivity | slight resistance | slight resistance | slight resistance | approximately 10 fold | approximately 10 fold | slight resistance | increase in membrane-tethered cytosolic eGFP signal | 4 fold | hypersensitivity | increase in membrane-tethered cytosolic eGFP signal | – | – | –
2 | CC(C)(C)[C@H](NC(=O)C(F)(F)F)C(=O)N1C[C@H]2[C@@H]([C@H]1C(=O)N[C@H](C#N)C[C@@H]1CCNC1=O)C2(C)C [nirmatrelvir] | – | – | – | – | – | – | – | – | – | – | – | – | retains sensitivity | – | –
3 | GC376 | – | minimal effects | minimal effects | – | minimal effects | – | – | – | – | – | minimal effects | – | – | 2.1 fold | 1.8 fold
